Earlier results in patent US20250222007A1, “PREPARATION OF LOW MOLECULAR WEIGHT POLYLACTIC ACID AND THE USE THEREOF” (AL Andalous for Pharmaceutical Industries, priority 2023, published 2025).

Legend:
[1] = tested on: lower conjunctival sac; conditions: 50 microliters instilled directly in the lower conjunctival sac
[2] = tested on: blind human eyes; conditions: 66% DMSO (with Tetryzoline) topically 4-8 times a day
[3] = tested on: rabbit eye; conditions: 0.2 ml/day of 100% DMSO (4 drops/day) for 6 months
[4] = dissolved in 0.1% DMSO, 20.5, 5, 10, 30, 40 micrograms

| SMILES | eye irritation or conjunctival or corneal injury [1] | cases with a burning sensation [2] | sensitivity to DMSO, epithelial damage, increase of IOP or keratitis [2] | adverse effect in the eye [3] | toxicity after intravitreal injection [4] |
| --- | --- | --- | --- | --- | --- |
| C[S+](C)[O-] [DMSO, dimethyl sulfoxide] | without any signs of eye irritation or conjunctival or corneal injury | only one case | None of any blind eyes evinced any evidence | without any evidence of an adverse effect |  |
| Clc1ccc(COC(Cn2ccnc2)c2ccc(Cl)cc2Cl)c(Cl)c1 (centres unmarked) [miconazole] |  |  |  |  | No toxicity was observed |
